The test system of data set [1] is mice with T10 lateral hemisection. In words: Irregular ladder walking after spinal cord T10 lateral hemisection. In kind it is in vivo, mouse. Conditions: for performance in irregular ladder, overground, or treadmill walking: injured mice with AAV-OPN/IGF1 or AAV-PLAP, 14 weeks post injury, i.p., quipazine 0.2 mg/kg, 8-OH-DPAT 0.1 mg/kg, SKF 0.1 mg/kg; for error rate, irregular walking task, denervated hindlimb: 12 weeks after injury, AAV injected into sensorimotor cortex 1 day after injury. The procedure:
(§1) Injury Models. […] Briefly, a midline incision was made over the thoracic vertebrae, followed by a T10 laminectomy. The unilateral hemisection was then performed carefully using both scalpel and micro-scissors, avoiding, to the greatest extent, the damage of the spinal cord dura. The muscle layers were then sutured and the skin was secured with wound clips. All mice received post hoc histological analysis and those with spared CST axons (incomplete lateral hemisection) or with significant less CST axons on the contra-lesional side (over lateral hemisection) at the lumbar spinal cord (L3), exemplified in FIG. 9A, were excluded for behavioral analysis.
Virus and Protein Injection.
Irregular Ladder Walking. […] Briefly, the ladder was elevated 30 cm above the ground. […] To prevent animals from learning the pattern, the irregular pattern was changed from trial to trial. All trials were video recorded (Hotshot e64, 100 fps) and paw placement was analyzed twice by blinded observers. Steps with precise placement of the center of the palm on the rung (for both forelimbs and hindlimbs) and digits closed (for forelimbs) were defined as correct steps (hit). All other steps were recorded as errors, which included two types: 1) Miss: when crossing the ladder, the forelimb/hindlimb either completely miss the rung or contact the rung with the wrist/heel instead of the paw; 2) Slip: when crossing the ladder, the mice use a few digits instead of the paw to place on the rungs, causing the subsequent slip on the rungs. The results were expressed as both percentage of total errors and percentage of different placement categories (hit, miss and slip).
(§2) Pharmacological Treatment. […] All behavioral tests were then accomplished between 1-3 hours post administration.

Another data set concerns injured mice. Kind of data set: Adverse effects of systemic potassium channel blockers in injured mice. In kind it is in vivo. The conditions noted are these: doses above 1 mg/kg (3 mg/kg tested), injured mice. The procedure: Chemicals and Antibodies. For systematic administration (i.p.), Quipazine [Sigma (Q1004), 0.2 mg/kg), SKF-82197 [Tocris (1447) 0.1 mg/kg], and 8-OH-DPAT [Tocris (0529), 0.1 mg/kg), 4AP [Sigma (275875), 1 mg/kg, 3 mg/kg), 4AP-MeOH [Santa Cruz (sc-267247), (1 mg/kg)] were dissolved in saline. Tamoxifen (Sigma, 10540-29-1) was dissolved in oil. For diphtheria toxin mediated cell ablation, we purchased the diptheria toxin from Sigma (D0564). For immunostaining, the primary antibody used were chicken anti-GFP [Abcam (Cat: ab13970)], rabbit anti-RFP [Abcam (Cat: ab34771)], rabbit anti-PKCγ [Santa Cruz (sc211)], rabbit anti-GFAP [DAKO (Z0334)]; rabbit anti-5-HT [Immunostar (20080)], rabbit-anti-IGFR [Santa Cruz (sc-712)] rabbit-anti-pIGFR[3 [Cell signaling technology (3024)], rabbit-anti-pS6 [Cell signaling technology (4857)], rat anti-CD68 [Bio-Rad (MCA 1957)], and Guinea pig-anti-Vglut1 [Synaptic Systems (135304)].
Pharmacological Treatment. […] A pilot experiment was performed and determined that 4AP (1 mg/kg, 3 mg/kg) and 4AP-MeOH (1 mg/kg) achieved their maximal effects within 1-3 hours post systematic administration (i.p.). […]

The subject of data set [2] is mice with T10 lateral hemisection. Kind of data set: Ground walking and treadmill walking after T10 lateral hemisection. It counts as in vivo, mouse. Conditions: i.p. As for the experimental part: as §1, §2
The next data set deals with optic nerve axons. In words: Optic nerve axon regeneration after optic nerve crush. In kind it is in vivo, mouse. The procedure:
The effects of various forms of active OPN were assessed for their capacity to promote optic nerve axon regeneration in an induced injury model. To express the various forms of active OPN AAVs expressing all forms of mouse OPN were injected intravitreally in anesthetized mice. To induce the injury model the optic nerves were crushed using a pair of forceps two weeks after intravitreal injection. Recombinant proteins (CNTF, IGF1, BDNF) were injected at 0 and 7 days after the crush (1 ul each, 1 ug/ul). Fluorescent cholera toxin beta subunit (CTB-555) was injected intravitreally 12 days after crush to trace the axons before the tissues were fixed 14 days after crush, sectioned and imaged.

The subject of another data set is CST axons. Kind of data set: CST regrowth (axon regeneration and midline-crossing sprouting) after T10 lateral hemisection. Conditions: AAV-expressed; for regrowth of injured CST axons at the lesion site: horizontal sections covering the lesion; for sprouting of intact CST axons across midline into the denervated side: spinal levels below the injury site. In kind it is in vivo, mouse. From the text:
Since the mice treated with AAV-OPN/IGF1 were co-injected with AAV-channel rhodopsin (ChR2)-mCherry (AAV-ChR2-mCherry) or AAV-ChR2-YFP to the ipsi-lateral or contra-lateral cortex, respectively, at the termination of behavioral assessment, a post hoc examination of the T10 lateral hemisection histology was first performed. Mice with incomplete- or over-hemisection could be readily identified by analyzing labeled CST axons at the lumbar spinal cord and excluded from further analysis (FIG. 2A). CST regrowth was examined by preparing horizontal spinal cord sections covering the lesion sites to assess axon regeneration across the lesion site, and transverse sections of lower spinal cord segments to assess midline-crossing of CST axons from intact side. […] Thus, these sprouting axons play an important role in the observed functional recovery. Therefore, combined treatment of AAV-OPN and AAV-IGF1 not only promotes CST regrowth but also CST-dependent behavioral performance.
Axon Counting and Quantification. To quantify the number of sprouting axons, a horizontal line was firstly drawn through the central canal and across the lateral rim of the gray matter. Three vertical lines (Mid, Z1, and Z2) were drawn to divide the horizontal line into three equal parts, starting from the central canal to the lateral rim. While Mid denotes midline crossing fibers, Z1 and Z2 are for sprouting fibers at different distance from the midline. Only fibers crossing the three lines were counted on each section. The results were presented after normalization with the number of counted CST fibers at the medulla level.
For quantifying total labeled CST axon, AAV-ChR2-YFP (FIG. 4D) or AAV-ChR2-mCherry (FIGS. 4C, 7E and 8E) labeled CST fibers were counted at the level of medulla oblongata 1 mm proximal to the pyramidal decussation. Axons were estimated by counting 4 rectangular areas (about 10000 μm^2/area) per section on two adjacent sections.
To quantify the regenerating axons (FIG. 4D), the number of intersections of chR2-YFP-labeled fibers with a dorsal-ventral line positioned at a defined distance caudal from the lesion center was counted under a 25X objective. Fibers were counted on 3 sections with the main dorsal CST and 1-3 lateral sections with collaterals in the gray matter. The number of counted fibers was normalized by the number of labeled CST axons in the medulla and divided by the number of evaluated sections.

For a further data set, the system named is p-IGFRβ. In words: phospho-IGFRβ immunostaining in corticospinal neurons after cortical injection of recombinant proteins, T10 lateral hemisection. It counts as in vivo, mouse. Conditions: intact or axotomized mature CSNs; recombinant protein alone. An excerpt: (§3) However, it is unknown whether IGF1 triggers similar signaling activation in adult CSNs and, if so, whether it could be altered by OPN treatment. Thus CSNs were labeled by spinal injection of HiRet-GFP, performed T10 lateral hemisection, and then bilaterally injected recombinant IGF, OPN or OPN/IGF1 proteins were bilaterally injected into the cortex (FIG. 5A). In 3 days, the cortical sections from both injured and intact sides of adult mice were immunostained for three factors. Anti-IGFR, anti-phospho-IGFRβ, an indicator for the activation of the IGF-1 mediated signaling pathways (Hernandez-Sanchez et al., 1995; Siddle, 2012), and anti-phospho-S6 (p-S6), an established marker of mTOR activation, one of the downstream target of IGF1 mediated signaling pathways (Liu et al., 2010; Pollak, 2008).
(§4) Virus and Protein Injection. […]
(§5) Immunohistochemistry and Imaging. […] To quantify and compare fluorescence intensity of IGFR, pIGFRβ and pS6 in GFP+ CSNs (FIGS. 2C-2E), CST axons in the dorsal funiculus (FIG. 3G) and CD68 staining (FIG. 10F) and corticofugal projections at multiple subcortical areas (FIG. 7B), and axon density of the intact side in the spinal cord (FIGS. 8E and 8F), all images used for analysis under multiple conditions were taken using the same optical parameters and avoided for saturation. […]

For the next data set, the system named is p-S6. Kind of data set: phospho-S6 immunostaining (mTOR activation) in corticospinal neurons after cortical injection of recombinant proteins, T10 lateral hemisection. It counts as in vivo, mouse. The conditions noted are these: intact and axotomized CSNs; recombinant proteins injected into cortex.
Excerpt: as §3, §4, §5

On to `Oc1cc2c(c(Cl)c1O)CCNCC2c1ccccc1` (stereo not drawn) [SKF], for which, in data set [1], the “performance in irregular ladder, overground, or treadmill walking” value (shortened to “performance … or treadmill walking”) was “failed to improve”. For the same molecule, the “hindlimb performance in irregular ladder walking on the denervated side” value in data set [1] (injured mice, i.p. 0.1 mg/kg) is listed as “deteriorated the hindlimb performance”.

`Nc1ccncc1` [4-AP, 4-aminopyridine]: the “error rates, irregular ladder walking task” value in data set [1] (1 mg/kg i.p., mice with OPN/IGF1 treatment) is listed as “showed a trend of reducing the error rates in mice with OPN/IGF1 treatment, but failed to reach statistical significance”. Moreover, in the data set with injured mice, the “adverse effect at higher doses” value is given as “seizures”. Further, the “recovery of treadmill walking performance compared to the control” value in data set [2] is “neither 4-AP nor 4-AP-MeOH had significant effects”.

Turning to `CCCN(CCC)C1CCc2cccc(O)c2C1` (stereo not drawn) [8-OH-DPAT], the “performance … or treadmill walking” value in data set [1] is on record as “failed to improve”.

Turning to “OPN: recombinant osteopontin (OPN) protein (Peprotech), injected into cortex or intravitreally”, the “error rate, irregular walking task, denervated hindlimb” value in data set [1] is on record as roughly 70%. Besides, the “effect of OPN added to CNTF on optic nerve axon regeneration” value in the data set on optic nerve axons (OPN with CNTF) is reported as “no added effect”. Further, the “effect of recombinant OPN protein on the optic nerve” value with optic nerve axons (intravitreal application, combined with IGF1 (FIG. 20)) is reported as “pro-regenerative effects”. Besides, in the data set on CST axons, the “regrowth of injured CST axons at the lesion site” value is given as “significant die-back from the lesion site” and the “sprouting of intact CST axons across midline into the denervated side” value is given as “little sprouting across midline”. The “effect on p-IGFRβ” value with p-IGFRβ is recorded as “no overt effect”. The “effect on p-S6 levels” value with p-S6 is listed as “not IGF1 or OPN alone”.

On to `c1ccc2nc(N3CCNCC3)ccc2c1` [quipazine], for which the “performance … or treadmill walking” value in data set [1] was “failed to improve”.

“IGF1: recombinant human insulin-like growth factor 1 (Peprotech)”: the “error rate, irregular walking task, denervated hindlimb” value in data set [1] is roughly 70%. The “dose dependence of the regenerative effect” value with optic nerve axons (combined with OPN) was “dosage dependent”. Besides, in the data set on CST axons, the “regrowth of injured CST axons at the lesion site” value is recorded as “significant die-back from the lesion site” and the “sprouting of intact CST axons across midline into the denervated side” value is “little sprouting across midline”. In addition, the “effect on p-IGFRβ” value in the data set with p-IGFRβ is reported as “no overt effect”. Besides, the “effect on p-S6 levels” value in the data set with p-S6 was “not IGF1 or OPN alone”.

B1: recombinant CNTF: recombinant CNTF protein injected after optic nerve crush (protein, UniProt P26441 1-200, looked up)
Ciliary neurotrophic factor: MAFTEHSPLTPHRRDLCSRSIWLARKIRSDLTALTESYVKHQGLNKNINLDSADGMPVASTDQWSELTEAERLQENLQAYRTFHVLLARLLEDQQVHFTPTEGDFHQAIHTLLLQVAAFAYQIEELMILLEYKIPRNEADGMPINVGDGGLFEKKLWGLKVLQELSQWTVRSIHDLRFISSHQTGIPARGSHYIANNKKM
Regarding B1, the optic nerve regeneration result in the data set with optic nerve axons (intravitreal AAV 2 weeks before crush, recombinant proteins at 0 and 7 days after crush (1 ul, 1 ug/ul), 14 days after crush) was “no effect”.
